# Where two headings read alike, the source gives them in different places.
# Assays:
# [1] = test system: E. coli 4SI; assay: MIC, broth microdilution; format: cell-based; details: Escherichia coli, ciprofloxacin-resistant
# Procedure: (§1) MICs were determined by the broth microdilution method (the agar dilution method was used only for N. gonorrhoeae) according to CLSI guidelines.
# [2] = test system: S. pyogenes APV00074; assay: MIC, broth microdilution; format: cell-based; details: Streptococcus pyogenes; S. pyogenes APV00074, ciprofloxacin-susceptible
# Procedure: as §1
# [3] = test system: A. baumannii ATCC 19606; assay: MIC, broth microdilution; format: cell-based; details: Acinetobacter baumannii, ATCC19606; A. baumannii ATCC 19606, ciprofloxacin-susceptible
# Procedure: as §1
# [4] = test system: A. baumannii APV00473; assay: MIC, broth microdilution; format: cell-based; details: Acinetobacter baumannii; A. baumannii APV00473, ciprofloxacin-resistant
# Procedure: as §1
# [5] = biological target: T1, hERG channel (Homo sapiens, UniProt Q12809); assay: hERG automated patch clamp assay; format: cell-based; details: CHO-K1, read-out: IC50 against hERG channels
# T1 construct: expressed in transfected cells; host or cells: CHO-K1
# Source text: hERG automated patch clamp assay. The human recombinant ERG CHO-K1 cell line was used in an automated patch clamp assay (qPatch system) to evaluate the hERG channel blockade potential of compounds 1 and 2 [36]. Concentration (log) response curves were fitted to a logistic equation to generate estimates of the 50% inhibitory value.
# [6] = test system: C. difficile ATCC 700057; assay: MIC, broth microdilution; format: cell-based, Clostridium difficile; details: Clostridioides difficile, ATCC700057
# Procedure: MICs were determined by the broth microdilution method (the agar dilution method was used only for N. gonorrhoeae) according to CLSI guidelines. […] The MIC values of antibiotics used in clinical practice were interpreted according to the susceptibility interpretive criteria reported in the appropriate CLSI Tables (M100-S25, CLSI, 2015).
# [7] = test system: S. aureus BAA-1720; assay: Minimal bactericidal concentration; format: cell-based, Staphylococcus aureus
# Procedure: (§2) Minimal bactericidal concentrations (MBCs) were determined according to the procedure described by Knapp. Viable counts were performed after plates were incubated at 37°C for 24 hours. The MBC was defined as the lowest concentration that reduced the viability of the initial bacterial inoculum by ≥99.9%.
# [8] = test system: S. aureus ATCC 29213; assay: Minimal bactericidal concentration; format: cell-based, Staphylococcus aureus
# Procedure: as §2
# [9] = test system: A. baumannii clinical isolates (n = 10); assay: microbe, parasite or virus in culture; format: cell-based, Acinetobacter baumannii
# Procedure: (§3) The bacterial reference strains used in this study were purchased from ATCC (American Type Culture Collection) via LGC Standards (Middlesex, UK). […] Clinical MDR isolates were provided by Aptuit, the IHMA Europa Sàrl repository (Epalinges, Switzerland) and the Statens Serum Institute (Copenhagen, Denmark).
# as §1
# (§4) The results obtained using clinical isolates are reported as MIC50 and MIC90 values.
# [10] = test system: C. difficile clinical isolates (n = 21); assay: MIC, multidrug-resistant clinical isolates; format: cell-based, Clostridium difficile; details: Clostridioides difficile, C. difficile clinical isolates (n = 21)
# Procedure: as §3, §1, §4
# [11] = test system: K. pneumoniae AcrAB- mutant; assay: microbe, parasite or virus in culture; format: cell-based; details: Klebsiella pneumoniae
# Summary of the method: (§5)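 MICs against efflux-deficient mutant strains were determined by broth microdilution following CLSI guidelines.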
# [12] = test system: H. influenzae AcrA- mutant; assay: microbe, parasite or virus in culture; format: cell-based; details: Haemophilus influenzae
# Summary of the method: as §5
# [13] = test system: S. aureus ATCC BAA-1720; assay: Time-kill assay; format: cell-based, Staphylococcus aureus; details: 1× to 4× MIC, over 24 hours
# Procedure: (§6) Time-kill experiments were performed according to the procedure reported by Knapp. […] A drug-free control was included in each experiment. The bacterial cultures were standardized to obtain an initial inoculum that ranged from 5×10^5 to 5×10^6 CFU/ml. The cultures were incubated at 37°C in a shaking bath. At 0, 2, 4, 8 and 24-hour intervals, viable counts were performed by spotting (in triplicate) 10 μl aliquots of suitable dilutions of the cultures onto Mueller-Hinton agar (MHA, Oxoid, Basingstoke, UK) plates. After incubation at 37°C for 24 hours, the bactericidal activity, namely, the ability to reduce the initial inoculum by 3 log10 CFU/ml, was assessed for each tested concentration over time.
# [14] = test system: S. aureus ATCC 29213; assay: Time-kill assay; format: cell-based, Staphylococcus aureus; details: 1× to 4× MIC (compound 1 also 8× and 16× MIC), over 24 hours
# Procedure: as §6
# [15] = test system: E. coli ATCC 25922; assay: Time-kill assay; format: cell-based, Escherichia coli; details: 1× to 4× MIC, over 24 hours
# Procedure: as §6
# [16] = test system: S. aureus ATCC 29213; assay: Post-antibiotic effect (PAE); format: cell-based, Staphylococcus aureus; details: 1-hour exposure, range over 1×, 4× and 16× MIC
# Procedure: (§7) A drug-free control was included in each experiment. After being exposed to the drug for 1 hour, viable counts were conducted in triplicate by spotting aliquots (10 μl) of suitable dilutions onto MHA plates. The drugs were removed by diluting the bacterial cultures (1:1000) in Cation-Adjusted Mueller-Hinton Broth (CAMHB; Sigma-Aldrich). The diluted cultures were incubated in a shaking bath at 37°C. To monitor the ongoing suppression of bacterial growth over time (5 hours), aliquots from each broth culture were periodically collected, diluted and plated to perform subsequent viable counts (in triplicate).
# [17] = test system: S. aureus clinical isolates (n = 10); assay: microbe, parasite or virus in culture; format: cell-based, Staphylococcus aureus
# Procedure: as §3, §1, §4
# [18] = test system: S. aureus ATCC 29213 and S. aureus BAA-1720; assay: MIC in the presence of 20% human serum
# [19] = test system: E. coli ATCC 25922; assay: Post-antibiotic effect (PAE); format: cell-based, Escherichia coli; details: 1× and 4× MIC
# Procedure: as §7
# [20] = test system: E. coli clinical isolates (n = 36); assay: MIC, multidrug-resistant clinical isolates; format: cell-based, Escherichia coli; details: Escherichia coli, E. coli MDR clinical isolates (n = 36)
# Procedure: as §3, §1, §4
# [21] = test system: S. aureus ATCC 29213; format: cell-based, Staphylococcus aureus; details: S. aureus ATCC 29213, 2×MIC
# [22] = S. aureus MDR clinical isolates (n = 10)
# T1 sequence (Q12809 whole entry): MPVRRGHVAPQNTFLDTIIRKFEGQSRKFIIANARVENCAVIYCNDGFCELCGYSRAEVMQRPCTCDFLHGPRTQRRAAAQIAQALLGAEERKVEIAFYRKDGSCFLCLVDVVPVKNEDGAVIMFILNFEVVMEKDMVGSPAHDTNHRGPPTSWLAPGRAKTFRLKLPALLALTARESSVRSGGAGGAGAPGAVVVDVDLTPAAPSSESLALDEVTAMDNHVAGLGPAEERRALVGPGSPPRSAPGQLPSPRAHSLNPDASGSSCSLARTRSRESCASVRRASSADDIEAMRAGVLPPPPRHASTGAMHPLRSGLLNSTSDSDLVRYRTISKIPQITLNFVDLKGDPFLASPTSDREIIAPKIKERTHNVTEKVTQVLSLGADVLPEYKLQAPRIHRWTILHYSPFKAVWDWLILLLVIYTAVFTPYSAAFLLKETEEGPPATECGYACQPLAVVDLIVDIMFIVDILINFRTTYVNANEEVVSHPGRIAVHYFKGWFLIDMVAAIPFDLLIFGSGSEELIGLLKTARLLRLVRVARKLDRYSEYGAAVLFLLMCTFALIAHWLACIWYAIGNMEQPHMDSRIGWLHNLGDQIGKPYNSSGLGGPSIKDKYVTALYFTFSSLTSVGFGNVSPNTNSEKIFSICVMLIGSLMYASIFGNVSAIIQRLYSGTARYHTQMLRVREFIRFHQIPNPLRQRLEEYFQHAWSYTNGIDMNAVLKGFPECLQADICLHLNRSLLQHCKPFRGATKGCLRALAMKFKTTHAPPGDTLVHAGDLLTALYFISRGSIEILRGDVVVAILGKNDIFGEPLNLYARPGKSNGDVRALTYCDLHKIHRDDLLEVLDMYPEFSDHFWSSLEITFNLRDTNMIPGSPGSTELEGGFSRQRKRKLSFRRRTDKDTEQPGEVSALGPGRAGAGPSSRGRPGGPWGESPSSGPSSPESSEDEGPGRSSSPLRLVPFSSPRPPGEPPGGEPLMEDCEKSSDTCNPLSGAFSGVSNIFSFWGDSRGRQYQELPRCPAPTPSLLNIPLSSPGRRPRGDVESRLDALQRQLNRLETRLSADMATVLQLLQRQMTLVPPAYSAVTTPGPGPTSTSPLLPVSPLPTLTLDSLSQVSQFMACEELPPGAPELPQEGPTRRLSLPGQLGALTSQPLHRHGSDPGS
compound,measurement,setting,value
"Cl.N#Cc1ccc2ccc(=O)n([C@H]3CC[C@H](NCc4cc5c(=O)oc6ccc(F)cc6c5[nH]4)CC3)c2c1 [Compound 2, 1-(trans-4-{[(8-fluoro-4-oxo-1,4-dihydro[1]benzopyrano[4,3-b]pyrrol-2-yl)methyl]amino}cyclohexyl)-2-oxo-1,2-dihydroquinoline-7-carbonitrile hydrochloride]",MIC,[1],0.5 µg/mL
same,MIC,[2],≤ 0.06 µg/mL
same,MIC,[3],0.12 µg/mL
same,MIC,[4],0.5 µg/mL
same,IC50,[5],> 100 µM
same,MIC,[6],0.25 µg/mL
same,MBC/MIC,[7],125
same,MBC,"[7]; Staphylococcus aureus, BAA1720, ≥99.9% reduction of inoculum",2 µg/mL
same,MBC/MIC,[7]; listed as compound 2,≥ 16
same,MBC/MIC,[8],16
same,MBC,"[8]; Staphylococcus aureus, ATCC29213, ≥99.9% reduction of inoculum",0.5 µg/mL
same,MBC/MIC,[8]; listed as compound 2,≥ 16
same,MIC range,[9],≤0.06 to 0.12 µg/mL
same,MIC50,[9]; Acinetobacter baumannii,≤ 0.06 µg/mL
same,MIC90,[9]; Acinetobacter baumannii,0.12 µg/mL
same,MIC50,[10]; read-out: MIC50,0.12 µg/mL
same,MIC90,[10]; read-out: MIC90,0.25 µg/mL
same,MIC,[10]; read-out: MIC range,0.06 to 0.25 µg/mL
same,MIC,[11],≤ 0.016 µg/mL
same,MIC,[12],≤ 0.016 µg/mL
same,Bactericidal activity in time-kill (reduction of 3 log10 CFU/ml),[13],no bactericidal activity
same,Bactericidal activity in time-kill (reduction of 3 log10 CFU/ml),[14],no bactericidal activity
same,Bactericidal activity in time-kill (reduction of 3 log10 CFU/ml),[15],no bactericidal activity
same,PAE,[16],73 to 78 min
same,MIC50,[17]; [22],≤ 0.06 µg/mL
same,MIC90,[17]; [22],≤ 0.06 µg/mL
same,MIC range,[17]; [22],≤0.06 µg/mL
same,MIC,"[17]; Staphylococcus aureus, MRSA, S. aureus APV0063, MRSA",≤ 0.06 µg/mL
same,MIC,"[17]; Staphylococcus aureus, MRSA, S. aureus APV0064, MRSA",≤ 0.06 µg/mL
same,MIC,"[17]; Staphylococcus aureus, MRSA, S. aureus APV0065, MRSA",≤ 0.06 µg/mL
same,MIC,"[17]; Staphylococcus aureus, S. aureus APV00045, M (macrolide resistance)",≤ 0.06 µg/mL
same,MIC,"[17]; Staphylococcus aureus, S. aureus APV0048, MLSi",≤ 0.06 µg/mL
same,MIC,"[17]; Staphylococcus aureus, S. aureus APV0049, MLSi",≤ 0.06 µg/mL
same,MIC,"[17]; Staphylococcus aureus, S. aureus APV0052, MLSc",≤ 0.06 µg/mL
same,MIC,"[17]; Staphylococcus aureus, S. aureus APV0053, MLSc",≤ 0.06 µg/mL
same,MIC,"[17]; Staphylococcus aureus, S. aureus APV00280, M (macrolide resistance)",≤ 0.06 µg/mL
same,MIC,"[17]; Staphylococcus aureus, S. aureus APV00281, M (macrolide resistance)",≤ 0.06 µg/mL
same,MIC50,"[17]; Staphylococcus aureus, S. aureus MDR clinical isolates (n = 10), read-out: MIC50",≤ 0.06 µg/mL
same,MIC90,"[17]; Staphylococcus aureus, S. aureus MDR clinical isolates (n = 10), read-out: MIC90",≤ 0.06 µg/mL
same,Change of MIC in the presence of 20% human serum,[18],not modified
same,PAE compared with ciprofloxacin,[19],approximately two-fold greater
same,MIC,[20],0.5 to 4 µg/mL
same,MIC50,[20]; read-out: MIC50,1 µg/mL
same,MIC90,[20]; read-out: MIC90,2 µg/mL
same,In vitro frequency of resistant mutants,[21],6.7×10^−7
